This is an account of results in patent US12162935B2, “Regimens, compositions and methods with capsaicin and TNF-alpha inhibitor” (priority 2018, dated 2024).

For data set [1], the system named is UB/OC-1 cells. Put plainly: Western blot of STAT1, STAT3 and JAK2 phosphorylation. It counts as cell-based, mouse. (Immunoblotting shows a protein as a band on a membrane.)
Data set [2] has as its system Wistar rats. Put plainly: ABR threshold shifts, cisplatin-induced hearing loss. It counts as in vivo, rat. As for the experimental part: Adult male Wistar rats (200-350 g) (from Envigo) were used for this study. Rats were housed in a temperature controlled room with a twelve hour light/dark cycle. They had free access to commercial food and water provided by the SIU Laboratory Animal Care facility.
Prior to experiments, rats were anesthetized with ketamine HCl/xylazine mixture (24.6/3 mg/kg) and then placed in a sound-attenuation chamber (Industrial Acoustic Company, Inc.). Body temperature of the rats was maintained at 37° C. with an animal blanket system. Pretreatment auditory brainstem responses (ABRs) was performed using an IHS-High-frequency System (Intelligent Hearing Systems, Miami, FL). The rats were exposed to acoustic stimuli via HIS transducers that were directly placed at the entrance of the ear canal. ABR thresholds were obtained for 5 ms duration tone bursts at 8, 16 and 32 kHz at a rate of 50/s. Thresholds were determined by visually produced lowest intensity evoked potentials (EP) that progressed in 10 dB steps. Evoked potentials (Eps) were amplified to 200,000×, and were band pass filtered (100-3000 Hz) and averaged over 1024 sweeps [Mukherjea et al., 2010].
At the end of auditory testing, the anesthetized animals were decapitated and the cochlea harvested. The SIU Laboratory Animal Care and Use Committee approved all animal procedures.
Male Wistar rats were anesthetized using ketamine/xylazine cocktail. The tympanic membrane was punctured as described in [Mukherjea et al., 2010].

In data set [3] the test system is UB/OC-1 cells. The data set can be described thus: Cell viability assay (MTS assay). It counts as cell-based. As for the experimental part: The in vitro UB/OC1 cell proliferation was performed by using the CellTiter 96® AQueous One Solution Cell Proliferation Assay Kit (Promega, Madison, WI), according to the manufacturer's instructions. 3,500 cells were seeded per well into a 96-well plate. […] After 48 h, 20 μl of CellTiter 96 AQueous One Solution reagent was added to each well in 100 μl of total volume of media. Cells were incubated for 1 h, and recorded absorbance at 490 nm using an ELISA plate reader. The absorbance is directly proportional to the number of living cells and is expressed as a percent relative to vehicle-treated cells.
On the technique in general: Tetrazolium assays rely on reduction of a dye to a coloured formazan, in cell work by metabolically active cells.

For data set [4], the system named is ERK1/2. Put plainly: ERK1/2 activation by western blotting. It counts as cell-based, mouse. As to conditions: 100 μM H2O2 or TNF-α 0.1 μg/ml.
In data set [5] the test system is UB/OC1 cells. The data set can be described thus: Cell death by TUNEL.
Experimental: UB/OC1 cells were treated with either scrambled siRNA or TRPV1 siRNA for 24 h.
For data set [6], the system named is UB/OC-1 cells. The data set can be described thus: Ca2+ imaging (Fluo-4AM) in UB/OC-1 cells. It counts as cell-based, mouse. The source says:
(§1) NE has been linked to immediate increase in ROS generation and persistent oxidative stress in the cochlea2, leading to generation of reactive oxygen species such as: hydroxyl […] (OH^−), superoxide anion (O^2—) and hydrogen peroxide (H2O2).

The target in data set [7] is TRPV1 (Homo sapiens, UniProt Q8NER1). The data set can be described thus: Ca2+ imaging (Fluo-4AM) in HEKVR1 cells. It counts as cell-based.
Sequence of TRPV1 (Q8NER1 whole entry, species assumed): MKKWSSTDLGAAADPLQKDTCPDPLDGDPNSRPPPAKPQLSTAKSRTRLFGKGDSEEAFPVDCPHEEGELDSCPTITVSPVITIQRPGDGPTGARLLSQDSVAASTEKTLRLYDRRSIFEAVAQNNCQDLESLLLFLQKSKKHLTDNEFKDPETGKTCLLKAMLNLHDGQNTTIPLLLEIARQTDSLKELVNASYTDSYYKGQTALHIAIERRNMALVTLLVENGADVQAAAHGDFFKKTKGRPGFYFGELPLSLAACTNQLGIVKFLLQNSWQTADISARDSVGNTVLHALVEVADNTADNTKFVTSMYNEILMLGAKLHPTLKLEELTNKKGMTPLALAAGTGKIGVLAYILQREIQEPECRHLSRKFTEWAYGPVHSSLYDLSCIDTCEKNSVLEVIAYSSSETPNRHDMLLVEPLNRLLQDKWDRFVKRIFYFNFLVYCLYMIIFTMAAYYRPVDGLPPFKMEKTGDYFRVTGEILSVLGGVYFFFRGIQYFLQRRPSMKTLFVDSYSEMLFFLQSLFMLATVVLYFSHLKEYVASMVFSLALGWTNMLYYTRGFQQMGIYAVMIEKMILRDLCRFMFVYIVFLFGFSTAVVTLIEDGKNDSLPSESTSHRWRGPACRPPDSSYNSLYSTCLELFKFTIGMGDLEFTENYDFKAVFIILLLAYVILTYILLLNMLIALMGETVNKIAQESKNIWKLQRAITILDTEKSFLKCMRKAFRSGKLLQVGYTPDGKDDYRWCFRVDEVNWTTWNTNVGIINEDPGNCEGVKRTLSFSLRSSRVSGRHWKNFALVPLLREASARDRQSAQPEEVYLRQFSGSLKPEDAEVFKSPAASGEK
From the text: as §1

Data set [8] concerns UMSCC-10b cells. The data set can be described thus: SCID mouse xenograft model. It counts as in vivo. To be noted: single agent: cisplatin 2 mg/kg ip or oral capsaicin 0.5 mg/kg. As for the experimental part: SCID mice (from Envigo, 5-6 weeks of age) were injected subcutaneously with 1.5×10^6 mycoplasma-free UMSCC 10B cells in one flank. […] At the time of each treatment, tumor volumes were calculated based on the formula: volume=width2×(length/2) [Jajoo et al.]. Mice were killed 24 h after the eleventh treatment. All procedures were performed in accordance with relevant guidelines and regulations of SIU School of Medicine.

In data set [9] the test system is rat cochlea. The data set can be described thus: Cochlear gene expression by q-PCR (cisplatin study). As to conditions: 72 h following cisplatin. It counts as in vivo.
Data set [10] relates to rat cochlea. The data set can be described thus: Immunolabelling of mid-modiolar cochlear sections, fluorescent intensity analyses. It counts as in vivo. On the procedure: Cochleae were perfused with a 4% paraformaldehyde solution, cochleae were decalcified for 7-10 days in 120 mM EDTA, embedded them in paraffin and then sectioned the specimens [Mukherjea et al., 2010]. Slides were deparaffined, rehydrated and then stained with primary and secondary antibodies. Glass coverslips were mounted on the specimens with ProLong Diamond mounting medium. Images were obtained using a Leica confocal microscope (Buffalo Grove, IL).
Image J software was used to analyze the mean gray area for the various images. These values were then used to quantify the increase or decrease in % fluorescence intensity of the various regions of the samples compared to control.

The test system of data set [11] is outer hair cells (OHCs). Put plainly: Outer hair cell damage by SEM and whole mount hair cell count. It counts as in vivo, rat. To be noted: basal turn, cisplatin. The source says: Immediately after completion of post-treatment ABRs, rats were euthanized and their cochleae were harvested and the specimens processed as described previously by [Kamimura et al.]. Sputter-coated cochlea were viewed and photographed with a Hitachi S-500 scanning electron microscope (Hitachi Ltd.). The resulting scanning electron micrographs were examined to determine qualitative morphological characteristics in various regions including the basal, middle, and apical turns of the rat cochlea.
Two representative areas of the basal turn, middle turn, and apex and hook portion were photographed. In each area, outer hair cells (OHCs) were counted in an area that was 10 pillar cell heads in length. The results are presented as the percentage hair cell damage per cochlear turn. At least three cochleae from different animals per treatment group were used.
To study the organization of the outer hair cells and inner hair cells, the cochlear whole mount technique was used. The cochleae was fixed in fresh 4% paraformaldehyde overnight, and then decalcified in […] EDTA for 2 weeks, (pH 7.3) while stirring at room temperature for 2 weeks. After decalcification, the cochleae was microdissected into basal, middle, and apical turns for whole-mount preparation.
For further processing, segments were washed with 1×PBS twice for 5 mins. For blocking, the segments were incubated in 10% blocking serum (horse serum) for 3 hrs at room temperature. The segments were incubated with primary antibody in 0.2% Triton prepared in PBS and refrigerated overnight. The following day, the segments were washed in PBS (three washes) for 5 mins each wash. The segments were washed in secondary antibody for 2 hrs at room temperature in the dark. The antibodies were then washed with PBS (three washes). Glass coverslips were then mounted on the segments with ProLong Diamond Antifade Mountant (Thermo Fisher Scientific) and incubated them at room temperature overnight and then stored them in 4 degrees. Images were procured using a Leica confocal microscope (Buffalo Grove, IL).
For hair cell count in whole mount preparations, two to three random areas from the basal turn from each treatment group separately were selected. Hair cells were counted in […] segments of the cochlea respectively. Counts were averaged across treatment group. This was further normalized as % of PBS (control) by taking the values of control as 100%.

Where [12] appears, read: BCTC 100 nM 45 min then capsaicin 2.5 μM.
[13] abbreviates: capsaicin 2.5 μM 30 min and/or cisplatin 2.5 μM 45 min (FIG. 5.E).
The mark [14] stands for this setting: TNF-α 0.1 μg/ml 60 seconds prior to 100 μM H2O2, till 5 minutes.

Regarding `Cc1c(C(=O)NN2CCOCC2)nn(-c2ccc(Cl)cc2Cl)c1-c1ccc(I)cc1` [AM281], in data set [1], the “capsaicin-induced Ser^727 p-STAT1” value was “had no effect” and the “capsaicin-induced Tyr p-STAT3” value is reported as “did not alter”.
In the case of `COc1ccc(C(=O)c2c(C)n(CCN3CCOCC3)c3cc(I)ccc23)cc1` [AM630], the ABR thresholds entry in [2] (AM630 trans-tympanic alone or in combination with capsaicin) is listed as “significant increases in ABR thresholds”. Further, in [2] (AM630 trans-tympanic before oral capsaicin 20 mg/kg and cisplatin), the “effect on capsaicin protection against cisplatin-induced hearing loss” value is reported as “reversed the protective effect of oral capsaicin”. In addition, the “cell viability compared to capsaicin” value in data set [3] (AM630 30 minutes prior to capsaicin for 24 h) is “significantly decreased cell viability”. Besides, in data set [1], the “capsaicin-induced Ser^727 p-STAT1” value was “significantly decreased” and the “capsaicin-induced Tyr p-STAT3” value is on record as “significantly decreased”. Also, the “JWH015 increase of p-STAT3” value in [1] (AM630 10 μM 30 min before JWH015) was “reversed”.
For `CC(C)(C)c1ccc(NC(=O)N2CCN(c3ncccc3Cl)CC2)cc1` [BCTC, N-(4-tertiarybutylphenyl)-4-(3-chloropyridin-2-yl) tetrahydropyrazine-1(2H)-carbox-amide], in [1] (setting [12]), the “TRPV1 mediated STAT1-Ser^727 phosphorylation” value is “decreases” and the “Tyr STAT3 phosphorylation” value is listed as “without significantly altering”.
`OO` [H2O2, hydrogen peroxide]: in [4], the “time of highest ERK activation post treatment” value turned out to be 60 min.
Take `CCCn1c(C)c(C(=O)c2cccc3ccccc23)c2ccccc21` [JWH015]: in data set [1] (JWH015 10 μM 30 min), the p-STAT3 entry was “increased p-STAT3”.
For the molecule `COc1cccc(-c2cc(=O)c3ccccc3o2)c1N` [PD98059], the “cell death/apoptosis by 100 μM H2O2” value in data set [5] was “significantly decreased cell death”. Also, the H2O2-induced calcium release result in data set [6] (10 μM PD98059 pre-treatment) and in data set [7] (10 μM PD98059 pre-treatment) was “little or no calcium release” each time.
For the molecule `O=[N+]([O-])c1ccc2c(c1)S(=O)(=O)C=C2` [STATTIC], the cell death result in data set [3] (STATTIC 100 nM alone) was “did not induce cell death”. Besides, the “protective action of capsaicin against cisplatin-induced cell killing” value in data set [3] (STATTIC 100 nM pre-treatment) is given as “abrogated the protective action of capsaicin”. In data set [1] (STATTIC 100 nM), the “Tyr^705 p-STAT3 levels” value is reported as “significantly reduced”.
In the case of `N.N.[Cl][Pt][Cl]` [cisplatin], the “tumor growth (volume, size, weight)” value in data set [8] is listed as “significantly reduced”. In data set [9], the “increases in TRPV1, NOX3 and INOS expression” value is on record as 2-3 fold. Besides, in [10] (single agent), the “CB2 labelling in the OHCs, SGs and SVA” value was “did not significantly change”. Further, the “TRPV1, NOX3 and iNOS labelling in the OHCs, SG and SVA” value in data set [10] (single agent vs control) was “significantly increased”. Further, the “Tyr p-STAT3” value in data set [1] (2.5 μM, at 120 minutes) was “sustained inhibition”. For the same molecule, the JAK2 phosphorylation result in data set [1] (2.5 μM, time course) is “persistent and significant reductions”. Besides, the “Ser^727 p-STAT1” value in data set [1] (2.5 μM, up to 120 min) is recorded as “persistent increase”. Further, in [1] (setting [13]), the p-STAT1 came to 120±2% and the p-STAT3 was determined as 106.5±2.5%. The “loss or damage of outer hair cells compared to vehicle controls” value in [11] (SEM) is on record as “ten-fold”. For the same molecule, the “outer hair cell death” value in [11] (whole mount, myosin VIIa) was determined as 43±4%.
Consider TNF-α, for which the “time of highest ERK activation post treatment” value in [4] was determined as 30 min. In addition, the H2O2-induced calcium release result in data set [6] (setting [14]) and in data set [7] (setting [14]) was “prolonged sustained calcium release” each time.
